In this assay the target is T1, full length MPS1 (Homo sapiens, UniProt P33981).
T1 sequence (P33981 1-857): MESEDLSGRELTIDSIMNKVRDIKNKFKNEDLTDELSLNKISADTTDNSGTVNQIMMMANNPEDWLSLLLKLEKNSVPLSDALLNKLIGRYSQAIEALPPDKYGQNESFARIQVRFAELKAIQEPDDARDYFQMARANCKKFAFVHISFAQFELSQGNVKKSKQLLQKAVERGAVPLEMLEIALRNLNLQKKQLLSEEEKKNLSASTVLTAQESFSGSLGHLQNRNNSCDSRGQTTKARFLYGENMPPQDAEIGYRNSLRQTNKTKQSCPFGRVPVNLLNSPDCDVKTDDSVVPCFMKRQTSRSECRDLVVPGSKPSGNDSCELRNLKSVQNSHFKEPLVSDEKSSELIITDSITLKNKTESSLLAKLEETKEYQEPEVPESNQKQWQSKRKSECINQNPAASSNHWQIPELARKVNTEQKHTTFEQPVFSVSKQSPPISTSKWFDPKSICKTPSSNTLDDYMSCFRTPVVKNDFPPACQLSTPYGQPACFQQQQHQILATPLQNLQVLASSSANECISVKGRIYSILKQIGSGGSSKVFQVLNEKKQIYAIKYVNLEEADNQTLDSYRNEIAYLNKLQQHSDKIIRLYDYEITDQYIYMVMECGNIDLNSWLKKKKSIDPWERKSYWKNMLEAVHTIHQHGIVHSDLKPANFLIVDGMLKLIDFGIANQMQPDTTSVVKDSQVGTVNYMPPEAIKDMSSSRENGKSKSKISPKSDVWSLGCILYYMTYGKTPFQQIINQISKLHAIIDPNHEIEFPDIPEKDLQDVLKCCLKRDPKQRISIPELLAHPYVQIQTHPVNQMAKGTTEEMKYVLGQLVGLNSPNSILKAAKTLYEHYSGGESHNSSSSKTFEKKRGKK
Description: biochemical. On the procedure:
Measurement of Inhibition of MPS1 Kinase
(5 μM), ATP (10 μM), either DMSO (1% v/v) or the test compound (in the range 0.25 nM-100 μM in 1% DMSO) and assay buffer (50 mM HEPES (pH 7.0), 0.02% NaN3, 0.01% BSA, 0.1 mM Orthovandate, […], 1 μM DTT, Roche protease inhibitor). The reaction was carried out for 60 min at room temperature and stopped by the addition of buffer (10 μl) containing 20 mM EDTA, 0.05% (v/v) Brij-35, in 0.1M HEPES-buffered saline (Free acid, Sigma, UK). The plate was read on a Caliper EZ reader II (Caliper Life Sciences).
The % inhibition of the compounds is calculated relative to the means of selected control wells. […] The % inhibitions at each concentration are then fitted to a 4 parameter logistic fit: y=(a+((b−a)/(1+((c/x^d)))) where a=asym min, b=asym max, c=IC50 and d=hill coefficient
The IC50 is the midpoint of a concentration-inhibition curve. Low readings indicate greater potency in that assay, high ones weaker potency in that assay. In the case of `CNC(=O)c1ccc(Nc2cc3[nH]c(-c4cnn(C)c4)cc3cn2)c(OC)c1` [Example 133, 3-Methoxy-N-methyl-4-(2-(1-methyl-1H-pyrazol-4-yl)-1H-pyrrolo[3,2-c]pyridin-6-ylamino)benzamide], it took 27 nM to reach half-maximal inhibition (IC50).

Compound `CNC(=O)c1ccc(Nc2cc3[nH]c(-c4cnn(C)c4)cc3cn2)c(Cl)c1` [Example 134, 3-Chloro-N-methyl-4-(2-(1-methyl-1H-pyrazol-4-yl)-1H-pyrrolo[3,2-c]pyridin-6-ylamino)benzamide] had a half-inhibitory concentration (IC50) of 20 nM.

Consider `COc1ccc(Nc2cc3[nH]c(-c4cnn(CC(=O)N(C)C)c4)cc3cn2)c(OC)c1` [Example 135, 2-(4-(6-(2,4-Dimethoxyphenylamino)-1H-pyrrolo[3,2-c]pyridin-2-yl)-1H-pyrazol-1-yl)-N,N-dimethylacetamide], for which the midpoint of inhibition, the IC50, lay at 821 nM.

In the case of `Cn1cc(-c2cc3cnc(Nc4ccc(N5CCCC5=O)cc4Cl)cc3[nH]2)cn1` [Example 136, 1-(3-chloro-4-((2-(1-methyl-1H-pyrazol-4-yl)-1H-pyrrolo[3,2-c]pyridin-6-yl)amino)phenyl)pyrrolidin-2-one], the IC50 was found to be 18 nM.

In the case of `COc1cc(CN2CCCC2)ccc1Nc1cc2[nH]c(-c3cnn(C)c3)cc2cn1` [Example 137, N-(2-methoxy-4-(pyrrolidin-1-ylmethyl)phenyl)-2-(1-methyl-1H-pyrazol-4-yl)-1H-pyrrolo[3,2-c]pyridin-6-amine], 25 nM corresponded to half-maximal inhibition (IC50).

Consider `CNCc1ccc(Nc2cc3[nH]c(-c4cnn(C)c4)cc3cn2)c(OC)c1` [Example 138, N-(2-methoxy-4-((methylamino)methyl)phenyl)-2-(1-methyl-1H-pyrazol-4-yl)-1H-pyrrolo[3,2-c]pyridin-6-amine], for which half-maximal inhibition (IC50) was put at 31 nM.

For the compound `COc1cc(CN(C)C)ccc1Nc1cc2[nH]c(-c3cnn(C)c3)cc2cn1` [Example 139, N-(4-((dimethylamino)methyl)-2-methoxyphenyl)-2-(1-methyl-1H-pyrazol-4-yl)-1H-pyrrolo[3,2-c]pyridin-6-amine], it took 55 nM to reach half-maximal inhibition (IC50).

The compound `COc1cc(CN)ccc1Nc1cc2[nH]c(-c3cnn(C)c3)cc2cn1` [Example 140, N-(4-(Aminomethyl)-2-methoxyphenyl)-2-(1-methyl-1H-pyrazol-4-yl)-1H-pyrrolo[3,2-c]pyridin-6-amine] gave an IC50 of 43 nM.

The compound `Cn1cc(-c2cc3cnc(Nc4cccc(OCC#N)c4)cc3[nH]2)cn1` [Example 141, 2-(3-(2-(1-Methyl-1H-pyrazol-4-yl)-1H-pyrrolo[3,2-c]pyridin-6-ylamino)phenoxy)acetonitrile] returned a half-inhibitory concentration (IC50) of 132 nM.

On to `COC1CN(C(=O)c2ccc(Nc3cc4[nH]c(-c5cnn(C)c5)cc4cn3)c(Cl)c2)C1` [Example 142, (3-Chloro-4-(2-(1-methyl-1H-pyrazol-4-yl)-1H-pyrrolo[3,2-c]pyridin-6-ylamino)phenyl)(3-methoxyazetidin-1-yl)methanone], for which the IC50 was 10 nM.

Consider `CCN(C)C(=O)c1ccc(Nc2cc3[nH]c(-c4cnn(C)c4)cc3cn2)c(Cl)c1` [Example 144, 3-Chloro-N-ethyl-N-methyl-4-(2-(1-methyl-1H-pyrazol-4-yl)-1H-pyrrolo[3,2-c]pyridin-6-ylamino)benzamide], for which half-maximal inhibition (IC50) required 11 nM.

As for `Cn1cc(-c2cc3cnc(Nc4ccc(C(=O)N5CCCC5)cc4Cl)cc3[nH]2)cn1` [Example 145, (3-Chloro-4-(2-(1-methyl-1H-pyrazol-4-yl)-1H-pyrrolo[3,2-c]pyridin-6-ylamino)phenyl)(pyrrolidin-1-yl)methanone], the IC50 is 12 nM.

In turn, `CN1CCN(C(=O)c2ccc(Nc3cc4[nH]c(-c5cnn(C)c5)cc4cn3)c(Cl)c2)CC1` [Example 146, (3-Chloro-4-(2-(1-methyl-1H-pyrazol-4-yl)-1H-pyrrolo[3,2-c]pyridin-6-ylamino)phenyl)(4-methylpiperazin-1-yl) methanone] had a half-maximal inhibitory concentration (IC50) of 20 nM.

For the origin of these results see US9371319B2, “Pyrrolopyridineamino derivatives as MPS1 inhibitors” (priority 2011, dated 2016).
